Measured values taken from US11028095B2, “Spiro-lactam and bis-spiro-lactam NMDA receptor modulators and uses thereof” (Aptinyx Inc., priority 2016, dated 2021).
Read-outs that look alike come from different tables or passages of the source.

How the values were obtained:
[1] = Microsomal stability (Rat); format: in vitro ADME; details: rat microsomes
Description: (§1) Microsomal stability of disclosed compounds was investigated. The following table indicates the percent of compound remaining after 60 minutes.

[2] = target: T1, NMDAR2C expressing HEK cell membranes (Homo sapiens, UniProt Q05586+Q14957); assay: NMDAR agonist assay, [3H]MK-801 binding, NMDAR2C; format: biochemical; details: for EC50: [3H]MK-801 binding
T1 construct: expressed in transfected cells; host or cells: HEK cells (membrane extract)
Description: (§2) (nonequilibrium conditions).
(§3) The baseline value was determined from the best fit curve of the DPM values modeled using the GraphPad program and the log(agonist) vs. response(three parameters) algorithm was then subtracted from all points in the dataset.

[3] = target: T2, NMDAR2D expressing HEK cell membranes (Homo sapiens, UniProt O15399+Q05586); assay: NMDAR agonist assay, [3H]MK-801 binding, NMDAR2D; format: biochemical; details: for EC50: [3H]MK-801 binding, read-out: NMDAR2D: log EC50 (converted); for Emax: read-out: NMDAR2D: % maximal [3H]MK-801 binding relative to 1 mM glycine
T2 construct: expressed in transfected cells; host or cells: HEK cells (membrane extract)
Description: as §2, §3

[4] = target: T3, NMDAR2B expressing HEK cell membranes (Homo sapiens, UniProt Q05586+Q13224); assay: NMDAR agonist assay, [3H]MK-801 binding, NMDAR2B; format: biochemical; details: for EC50: [3H]MK-801 binding; for Emax: relative to 1 mM glycine
T3 construct: expressed in transfected cells; host or cells: HEK cells (membrane extract)
Description: as §2, §3

[5] = Oral pharmacokinetics (plasma, brain, CSF); format: in vivo; details: Sprague Dawley rats, per os, 10 mg/kg; for AUC(0-t) / Tmax / Cmax / bioavailability: rat, plasma, po; for Tmax: normal saline, read-out: Tmax; for Cmax: read-out: Cmax
Description: In another experiment, Sprague Dawley rats were dosed per os using a normal saline formulation containing 10 mg/kg of the compounds identified in the table below. Plasma, brain, and CSF samples were analyzed at various time points over a 24 hour period. The table below summarizes the results of the oral pharmacokinetics.

[6] = Plasma stability (Rat); format: in vitro ADME
Description: (§4) Plasma stability of disclosed compounds was investigated. The following table indicates the percent of compound remaining after 60 minutes.

[7] = Plasma stability (Human); format: in vitro ADME
Description: as §4

[8] = IV pharmacokinetics; format: in vivo; details: rat, in vivo, 2 mg/kg, Sprague Dawley rats, normal saline; for C0: read-out: C0; for Vd: read-out: Vss
Description: Sprague Dawley rats were dosed intravenously using a normal saline formulation containing 2 mg/kg of the compounds identified in the below table. The table below summarizes the results of the IV pharmacokinetics.

[9] = Microsomal stability (Human); format: in vitro ADME; details: human microsomes
Description: as §1

[10] = target: T4, NMDAR2A expressing HEK cell membranes (Homo sapiens, UniProt Q05586+Q12879); assay: NMDAR agonist assay, [3H]MK-801 binding, NMDAR2A; format: biochemical; details: for EC50: [3H]MK-801 binding; for Emax: relative to 1 mM glycine
T4 construct: expressed in transfected cells; host or cells: HEK cells (membrane extract)
Description: as §2, §3

[11] = tested on: positive (hedonic) 50-kHz ultrasonic vocalizations (USVs); assay: Positive Emotional Learning (PEL) test; format: in vivo; details: rat, PO, one hour after administration
Description: Experiments were conducted as described in Burgdorf et al., “The effect of selective breeding for differential rates of 50-kHz ultrasonic vocalizations on emotional behavior in rats,” Devel. […] Rat 50-kHz ultrasonic vocalization (hedonic USVs) is a validated model for the study of positive affective state and is best elicited by rough-and-tumble play.
The PEL assay measures the acquisition of positive (hedonic) 50-kHz ultrasonic vocalizations (USVs) to a social stimulus, heterospecific rough and tumble play stimulation. Heterospecific rough-and-tumble play stimulation was administered by the experimenter's right hand. One hour after administration of test compound or vehicle negative control (0.5% sodium carboxymethyl cellulose in 0.9% sterile saline vehicle), animals received 3 min of heterospecific rough-and-tumble play that consisted of alternating 15 sec blocks of heterospecific play and 15 sec of no-stimulation. […] Frequency modulated 50-kHz USVs that occurred during each of the no-stimulation periods were quantified to measure PEL. Animals were not habituated to play stimulation before testing. Positive emotional learning was measured during the conditioned stimulus (CS) trials preceding the tickle unconditioned stimulus (UCS) trials. Animals received 15 second trials consisting of 6 CS and 6 UCS trials each (3 min total).

[12] = target: T5, NMDAR2B expressing HEK cell membranes (Homo sapiens, UniProt Q13224); assay: NMDAR agonist assay, [3H]MK-801 binding, NMDAR2B; format: biochemical; details: 50 μM glutamate; relative to 1 mM glycine
T5 construct: expressed in transfected cells; host or cells: HEK cells (membrane extract)
Description: as §2, §3

[13] = target: T6, NMDAR2A expressing HEK cell membranes (Homo sapiens, UniProt Q12879); assay: NMDAR agonist assay, [3H]MK-801 binding, NMDAR2A; format: biochemical; details: 50 μM glutamate; relative to 1 mM glycine
T6 construct: expressed in transfected cells; host or cells: HEK cells (membrane extract)
Description: as §2, §3

[14] = 50 μM glutamate, relative to 1 mM glycine, read-out: NMDAR2C A: % maximal [3H]MK-801 binding relative to 1 mM glycine
[15] = 50 μM glutamate, relative to 1 mM glycine
[16] = 50 μM glutamate, read-out: NMDAR2B log EC50 (converted)
[17] = 50 μM glutamate, read-out: NMDAR2B: % maximal [3H]MK-801 binding relative to 1 mM glycine
[18] = 50 μM glutamate, read-out: NMDAR2A: log EC50 (converted)
[19] = read-out: NMDAR2C: % maximal [3H]MK-801 binding relative to 1 mM glycine
[20] = NMDAR2B: log EC50, 50 μM glutamate
[21] = NMDAR2A: log EC50, 50 μM glutamate
[22] = 50 μM glutamate, read-out: NMDAR2C: log EC50 (converted)

T2 sequence (O15399 28-1336, other chains not shown): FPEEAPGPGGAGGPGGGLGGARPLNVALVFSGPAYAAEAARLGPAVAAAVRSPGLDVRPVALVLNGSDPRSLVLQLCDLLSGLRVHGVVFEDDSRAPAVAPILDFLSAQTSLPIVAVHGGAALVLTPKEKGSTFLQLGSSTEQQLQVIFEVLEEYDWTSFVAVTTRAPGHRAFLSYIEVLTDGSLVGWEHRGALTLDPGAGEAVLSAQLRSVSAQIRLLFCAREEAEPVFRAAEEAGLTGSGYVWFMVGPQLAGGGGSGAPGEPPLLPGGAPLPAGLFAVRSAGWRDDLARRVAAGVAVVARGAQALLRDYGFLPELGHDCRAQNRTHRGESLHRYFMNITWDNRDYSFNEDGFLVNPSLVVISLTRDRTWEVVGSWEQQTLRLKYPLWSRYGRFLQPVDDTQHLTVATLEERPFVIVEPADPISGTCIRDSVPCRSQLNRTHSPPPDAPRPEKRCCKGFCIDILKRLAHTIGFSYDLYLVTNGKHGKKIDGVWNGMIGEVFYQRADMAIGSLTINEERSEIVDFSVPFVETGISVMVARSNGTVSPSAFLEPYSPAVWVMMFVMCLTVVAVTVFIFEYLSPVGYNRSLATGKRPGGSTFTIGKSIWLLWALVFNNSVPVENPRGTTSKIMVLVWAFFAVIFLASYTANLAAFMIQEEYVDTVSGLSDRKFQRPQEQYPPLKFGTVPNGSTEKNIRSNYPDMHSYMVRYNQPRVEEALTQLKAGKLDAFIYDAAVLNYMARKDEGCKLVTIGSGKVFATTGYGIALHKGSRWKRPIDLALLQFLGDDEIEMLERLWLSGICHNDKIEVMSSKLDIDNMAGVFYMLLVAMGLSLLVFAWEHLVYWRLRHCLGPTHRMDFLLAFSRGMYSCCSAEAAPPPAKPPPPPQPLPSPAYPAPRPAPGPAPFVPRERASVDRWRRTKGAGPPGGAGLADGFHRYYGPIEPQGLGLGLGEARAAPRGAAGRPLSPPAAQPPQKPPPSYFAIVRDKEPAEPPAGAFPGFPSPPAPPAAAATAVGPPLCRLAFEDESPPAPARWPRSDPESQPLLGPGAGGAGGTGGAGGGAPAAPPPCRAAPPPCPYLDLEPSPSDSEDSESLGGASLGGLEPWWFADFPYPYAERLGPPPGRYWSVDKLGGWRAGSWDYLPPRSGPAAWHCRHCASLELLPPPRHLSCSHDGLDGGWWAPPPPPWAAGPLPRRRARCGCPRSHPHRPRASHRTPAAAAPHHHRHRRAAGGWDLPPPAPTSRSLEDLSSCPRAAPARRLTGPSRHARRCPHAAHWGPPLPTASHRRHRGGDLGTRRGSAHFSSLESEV
T1 sequence (Q14957 20-1233, other chains not shown): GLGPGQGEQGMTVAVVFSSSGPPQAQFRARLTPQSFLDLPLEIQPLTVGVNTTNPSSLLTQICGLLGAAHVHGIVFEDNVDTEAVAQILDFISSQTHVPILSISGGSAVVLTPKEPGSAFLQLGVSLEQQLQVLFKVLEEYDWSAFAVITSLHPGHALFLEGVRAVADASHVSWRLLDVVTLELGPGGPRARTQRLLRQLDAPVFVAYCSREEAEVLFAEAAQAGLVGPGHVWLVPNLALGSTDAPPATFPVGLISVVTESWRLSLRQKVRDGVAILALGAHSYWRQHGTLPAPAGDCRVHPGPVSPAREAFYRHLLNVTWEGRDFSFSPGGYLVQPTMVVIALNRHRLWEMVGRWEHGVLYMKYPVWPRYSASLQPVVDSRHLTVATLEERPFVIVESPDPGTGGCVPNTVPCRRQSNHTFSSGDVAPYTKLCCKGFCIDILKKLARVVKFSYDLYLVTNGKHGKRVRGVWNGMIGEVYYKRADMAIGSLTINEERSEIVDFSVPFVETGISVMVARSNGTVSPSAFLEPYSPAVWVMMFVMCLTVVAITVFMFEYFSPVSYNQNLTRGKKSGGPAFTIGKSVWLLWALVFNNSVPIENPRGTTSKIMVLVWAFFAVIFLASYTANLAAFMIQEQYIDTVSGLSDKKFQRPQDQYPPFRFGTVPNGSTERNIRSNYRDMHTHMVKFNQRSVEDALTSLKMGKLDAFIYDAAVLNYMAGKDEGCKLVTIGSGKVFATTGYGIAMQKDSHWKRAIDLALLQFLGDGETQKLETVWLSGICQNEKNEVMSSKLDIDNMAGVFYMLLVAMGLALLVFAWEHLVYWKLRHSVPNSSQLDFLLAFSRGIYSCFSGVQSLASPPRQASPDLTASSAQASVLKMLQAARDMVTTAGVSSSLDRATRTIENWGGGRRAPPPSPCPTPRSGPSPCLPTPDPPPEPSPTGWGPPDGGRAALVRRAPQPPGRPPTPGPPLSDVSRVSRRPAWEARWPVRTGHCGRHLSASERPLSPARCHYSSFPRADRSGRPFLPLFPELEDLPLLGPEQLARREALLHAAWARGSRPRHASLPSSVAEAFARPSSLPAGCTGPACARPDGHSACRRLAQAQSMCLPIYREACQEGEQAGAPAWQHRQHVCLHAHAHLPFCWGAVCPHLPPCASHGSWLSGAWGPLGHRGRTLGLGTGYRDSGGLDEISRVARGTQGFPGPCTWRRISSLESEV
T3 sequence (Q13224 27-1484, other chains not shown): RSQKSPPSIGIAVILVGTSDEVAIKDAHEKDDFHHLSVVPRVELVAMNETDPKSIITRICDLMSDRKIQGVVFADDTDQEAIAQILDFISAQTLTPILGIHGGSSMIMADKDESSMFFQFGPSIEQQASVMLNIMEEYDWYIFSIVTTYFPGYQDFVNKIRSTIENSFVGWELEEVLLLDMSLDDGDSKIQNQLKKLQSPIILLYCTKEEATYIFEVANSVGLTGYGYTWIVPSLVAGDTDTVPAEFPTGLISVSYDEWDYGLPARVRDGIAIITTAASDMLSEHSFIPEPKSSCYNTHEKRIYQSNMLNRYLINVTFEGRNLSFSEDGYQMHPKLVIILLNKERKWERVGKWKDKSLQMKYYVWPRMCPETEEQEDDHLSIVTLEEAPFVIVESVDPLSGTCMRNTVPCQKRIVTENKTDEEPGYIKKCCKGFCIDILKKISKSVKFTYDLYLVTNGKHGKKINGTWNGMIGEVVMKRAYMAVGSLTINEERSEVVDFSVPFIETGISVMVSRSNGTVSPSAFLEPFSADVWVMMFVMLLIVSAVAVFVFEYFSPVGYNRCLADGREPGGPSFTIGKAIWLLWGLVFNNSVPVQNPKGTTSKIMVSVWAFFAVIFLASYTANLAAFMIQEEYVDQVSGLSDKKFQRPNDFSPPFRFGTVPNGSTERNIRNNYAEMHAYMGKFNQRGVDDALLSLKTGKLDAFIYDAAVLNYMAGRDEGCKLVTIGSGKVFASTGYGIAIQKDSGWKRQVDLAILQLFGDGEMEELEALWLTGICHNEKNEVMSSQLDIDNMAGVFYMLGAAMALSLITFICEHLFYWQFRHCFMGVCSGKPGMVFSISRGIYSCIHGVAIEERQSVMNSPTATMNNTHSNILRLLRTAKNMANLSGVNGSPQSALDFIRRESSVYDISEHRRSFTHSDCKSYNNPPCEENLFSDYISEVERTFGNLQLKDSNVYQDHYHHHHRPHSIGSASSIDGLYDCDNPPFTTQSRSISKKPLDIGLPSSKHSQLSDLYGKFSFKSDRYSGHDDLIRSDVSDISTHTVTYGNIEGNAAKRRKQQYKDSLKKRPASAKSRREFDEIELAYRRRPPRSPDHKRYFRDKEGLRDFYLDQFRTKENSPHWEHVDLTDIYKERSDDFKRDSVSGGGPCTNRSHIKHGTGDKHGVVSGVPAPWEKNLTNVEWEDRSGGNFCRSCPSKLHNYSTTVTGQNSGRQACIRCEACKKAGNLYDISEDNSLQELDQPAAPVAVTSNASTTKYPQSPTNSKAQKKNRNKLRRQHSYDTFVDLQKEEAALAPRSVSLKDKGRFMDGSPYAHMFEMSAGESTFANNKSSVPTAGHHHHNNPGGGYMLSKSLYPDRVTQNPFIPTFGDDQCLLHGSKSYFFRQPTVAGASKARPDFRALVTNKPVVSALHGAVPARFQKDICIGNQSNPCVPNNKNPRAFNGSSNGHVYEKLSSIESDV

SMILES | Emax [2, 14] [%] | EC50 ([3]; 50 μM glutamate) [nM] | Emax [3, 15] [%] | EC50 [4, 16] [nM] | AUC(0-t) ([5]; Sprague Dawley) [ng·h/mL] | Tmax ([5]; Sprague Dawley) [min] | Cmax ([5]; Sprague Dawley) [ng/mL] | AUC(0-t) ([8]; Sprague Dawley, iv) [ng·h/mL] | clearance ([8]; Sprague Dawley, iv) [mL/min/kg] | half-life ([8]; Sprague Dawley, iv) [min] | C0 ([8]; Sprague Dawley, iv) [ng/mL] | Vd ([8]; Sprague Dawley, iv) [L/kg] | EC50 [10, 18] [nM] | EC50 [2, 22] [nM] | Microsomal (Rat): percent of compound remaining after 60 minutes [1] [%] | CSF Cmax [5] [ng/mL] | Brain Cmax [5] [ng/mL] | Plasma (Rat): percent of compound remaining after 60 minutes [6] [%] | Plasma (Human): percent of compound remaining after 60 minutes [7] [%] | Microsomal (Human): percent of compound remaining after 60 minutes [9] [%] | further results
CC(C)CN1[C@]2(CC[C@]13CNC3=O)CNC2=O [Compound AF, 5-isobutyl-2,5,8-triazadispiro[3.1.36.24]undecane-1,7-dione] | – | – | – | – | – | – | – | – | – | – | – | – | – | – | 87 | 2781 | 1313.8 | 90 | 99 | 92 | Emax [2, 19]: > 100%; Emax [3]: < 100%; EC50 [4, 20]: < 1 nM; Emax ([4]; read-out: NMDAR2B: % maximal [3H]MK-801 binding relative to 1 mM glycine, 50 μM glutamate): < 100%; AUC(0-t) [5]: 16100 ng·h/mL; bioavailability [5]: 82%; Tmax [5]: 25.2 min; Cmax [5]: 7250 ng/mL; AUC(0-t) [8]: 6450 ng·h/mL; clearance [8]: 5.2 mL/min/kg; half-life [8]: 299 min; C0 [8]: 3900 ng/mL; Vd [8]: 0.59 L/kg; EC50 [10, 21]: < 1 nM; Emax ([10]; read-out: NMDAR2A: % maximal [3H]MK-801 binding relative to 1 mM glycine, 50 μM glutamate): < 100%; Max Effect (mean number of 50 kHz USVs per 15 seconds) ([11]; dose 0.001-1 mg/kg): ** (**: 11-16.9)
C[C@@H](O)[C@@H](C(N)=O)N1CC2(CCC3(CN([C@H](C(N)=O)[C@@H](C)O)C3=O)N2C(=O)OC(C)(C)C)C1=O (stereo partly drawn) [BY, tert-butyl 2,8-bis((2S,3R)-1-amino-3-hydroxy-1-oxobutan-2-yl)-1,7-dioxo-2,5,8-triazadispiro[3.1.36.24]undecane-5-carboxylate] | < 100 | > 100 | 0 | < 1 | 486 | 49.8 | 156 | 5960 | 5.6 | 38.4 | 10200 | 0.15 | > 100 | < 1 | 81 | 0 | 0 | 82 | 81 | 100 | Emax [4, 17]: > 100%; bioavailability ([5]; Sprague Dawley): 2%; Max Effect (mean number of 50 kHz USVs per 15 seconds) ([11]; dose 0.1 mg/kg): ** (**: 11-16.9)
CN1C2(CCC13CNC3=O)CNC2=O (single isomer, unassigned) [AB-2, 5-methyl-2,5,8-triazadispiro[3.1.36.24]undecane-1,7-dione] | – | – | – | – | – | – | – | – | – | – | – | – | – | – | 78 | – | – | 83 | 86 | 72 | EC50 ([2]; NMDAR2C: log EC50, 50 μM glutamate): < 1 nM; Emax [2, 19]: < 100%; Emax [3]: < 100%; NMDAR2B: % maximal [3H]MK-801 binding relative to 1 mM glycine [12]: + (<100%=+); EC50 [4, 20]: < 1 nM; NMDAR2A: % maximal [3H]MK-801 binding relative to 1 mM glycine [13]: − (−=0); EC50 [10, 21]: > 100 nM; Max Effect (mean number of 50 kHz USVs per 15 seconds) ([11]; dose 0.001-1 mg/kg): ** (**: 11-16.9)

Continued, in another order:

Emax [2, 14] [%] | EC50 ([3]; 50 μM glutamate) [nM] | Emax [3, 15] [%] | EC50 [4, 16] [nM] | AUC(0-t) ([5]; Sprague Dawley) [ng·h/mL] | Tmax ([5]; Sprague Dawley) [min] | Cmax ([5]; Sprague Dawley) [ng/mL] | AUC(0-t) ([8]; Sprague Dawley, iv) [ng·h/mL] | clearance ([8]; Sprague Dawley, iv) [mL/min/kg] | half-life ([8]; Sprague Dawley, iv) [min] | C0 ([8]; Sprague Dawley, iv) [ng/mL] | Vd ([8]; Sprague Dawley, iv) [L/kg] | EC50 [10, 18] [nM] | EC50 [2, 22] [nM] | SMILES | Microsomal (Rat): percent of compound remaining after 60 minutes [1] [%] | CSF Cmax [5] [ng/mL] | Brain Cmax [5] [ng/mL] | Plasma (Rat): percent of compound remaining after 60 minutes [6] [%] | Plasma (Human): percent of compound remaining after 60 minutes [7] [%] | Microsomal (Human): percent of compound remaining after 60 minutes [9] [%] | further results
< 100 | < 1 | < 100 | < 1 | 350 | 49.8 | 133 | 3330 | 9.84 | 21.6 | 6820 | 0.28 | < 1 | – | C[C@@H](O)[C@H](NC(=O)C1CCC2(CNC2=O)N1)C(N)=O (single isomer, unassigned) [AQ-1] | 84 | 0 | 0 | 100 | 100 | 100 | Emax [4, 17]: < 100%; % F [5]: 2%; Emax ([10]; 50 μM glutamate, read-out: NMDAR2A: % maximal [3H]MK-801 binding relative to 1 mM glycine): < 100%; Max Effect (mean number of 50 kHz USVs per 15 seconds) ([11]; dose 0.1 mg/kg, 0.1 mg/kg): ** (**: 11-16.9)
< 100 | < 1 | < 100 | – | – | – | – | – | – | – | – | – | < 1 | < 1 | CC(C)(C)OC(=O)N1CC2(CN(OCc3ccccc3)C2=O)CC12CN(OCc1ccccc1)C2=O (single isomer, unassigned) [AW, tert-butyl 2,8-bis(benzyloxy)-1,7-dioxo-2,8,10-triazadispiro[3.1.36.24]undecane-10-carboxylate] | 0 | – | – | 0 | 90 | 2 | NMDAR2B: % maximal [3H]MK-801 binding relative to 1 mM glycine [12]: ++ (>100%=++); NMDAR2A: % maximal [3H]MK-801 binding relative to 1 mM glycine [13]: + (<100%=+); Max Effect (mean number of 50 kHz USVs per 15 seconds) ([11]; dose 0.1 mg/kg): ** (**: 11-16.9)
> 100 | – | – | < 1 | 614 | 15 | 859 | 656 | 50.5 | 20.4 | 2390 | 0.82 | > 100 | < 1 | CC(C)(C)OC(=O)N1C(C(N)=O)CCC12CN(OCc1ccccc1)C2=O (single isomer, unassigned) [BH, tert-butyl 2-(benzyloxy)-6-carbamoyl-1-oxo-2,5-diazaspiro[3.4]octane-5-carboxylate] | 100 | 36.66 | 0 | 95 | 90 | 100 | NMDAR2B: % maximal [3H]MK-801 binding relative to 1 mM glycine [12]: + (<100%=+); bioavailability ([5]; Sprague Dawley): 18%; NMDAR2A: % maximal [3H]MK-801 binding relative to 1 mM glycine [13]: − (−=0); Max Effect (mean number of 50 kHz USVs per 15 seconds) ([11]; dose 0.1 mg/kg): ** (**: 11-16.9)
